Results taken from patent US7736909B2, “Methods and compositions comprising capture agents” (Board of Regents, the University of Texas System, priority 2003, dated 2010).
pKd: −log10 of the molar value. Where two headings read alike, the source gives them in different places. Non-standard residues stand in square brackets, D forms with d. Residues, ends and D or L forms follow the SMILES beside them. N(4-Sulfamoylphenethyl)Gly = NS(=O)(=O)c1ccc(CCNCC(=O)O)cc1; Gly(N-piperonyl) = O=C(O)CNCc1ccc2c(c1)OCO2; Gly(N-CH2CH2OH) = O=C(O)CNCCO; Nlys = NCCCCNCC(=O)O

What was measured:
solubility observations = assay type: physicochemical
MBP-Mdm2 [1] = biological target: T1, MBP-Mdm2 (UniProt P0AEX9+Q00987); assay type: binding, human
T1 construct: The domain of the human Mdm2 protein represented by residues 1-188 is a structurally characterized monomer; made in house; host or cells: E. coli BL21-RIL
Description: Five milligrams of TentaGel beads (displaying the respective hit sequences, Nlys-Nbsa-Nlys-Nser-Nbsa-Npip-Nbsa-Npip-CONH2 and Nbsa-Nlys-Nbsa-Npip-Nlys-CONH2 or a random sequence Npip-Nser-Nbsa-Nall-Nlys-Npip-CONH2) were equilibrated in phosphate-buffered saline (PBS) for 60 minutes. The buffer was removed and the beads were blocked with 2% BSA for 60 minutes to saturate any non-specific binding sites. The beads were then washed with PBS (3 times), and incubated with 500 nM (unless indicated otherwise) of a Texas Red-labeled protein (MBP-MDM2 or GST) in 2% BSA (in 1×TBST buffer), in a 300 μL volume for 60 minutes. The beads were washed with TBST six times to remove any unbound protein and photographed under a fluorescence microscope. Studies that employed native (unlabeled) proteins were performed as follows. Ten milligrams of beads displaying the peptoid were exposed to 1 μM protein in the presence of 1000-fold excess E. coli lysate, 0.2% Tween-20 and 0.2 M NaCl in a total volume of 2 ml at RT for 2 hrs. The beads were washed three times with TBST (20 mM Tris buffered saline+0.1% Tween-20). Ten microliters of 2×SDS-PAGE loading dye was then added directly to these beads and they were boiled for 10 mins.
To probe the binding chemistry of chimeric binding ligand formula 2 on a solid support, which is more relevant to the issue of creating high affinity protein capture agents, TentaGel beads were prepared that display either chalcone formula 1 alone, the 10 mer peptoid NH2-Nlys-Npip-Nlys-Nser-Nlys-Nlys-Nlys-Nlys-Npip-Npip alone, or the chalcone-peptoid chimeric binding element of formula 2. In the experiment shown in FIG. 24D, the beads and the Texas Red-labeled proteins (100 nM) indicated in the figure were incubated under demanding buffer conditions (1M NaCl and 1% Tween-20 in the presence of a 100-fold excess of E. coli proteins), then washed thoroughly. Two populations of beads were then mixed in a 1:1 ratio and photographed under a fluorescence microscope to provide a direct comparison.
After thorough washing, the beads were photographed in the fluorescence microscope using identical settings in each case.

MBP-Mdm2 [2] = biological target: T1, MBP-Mdm2; assay: isothermal titration calorimetry (ITC); assay type: binding, human
Description: (§1) Isothermal titration calorimetry (ITC). ITC experiments were conducted on a MicroCal VP-ITC instrument. For the titration, 70 μM MBP-hmdm2 or 30 μM GST in PBS+10% DMSO was taken in the sample cell. To this, 15 μl aliquots of the peptoid solution in the same buffer were added from a computer-controlled 250 μl rotating syringe. The syringe was set at 400 rpm with intervals of 3 minutes between injections to attain baseline stabilization. The heat absorbed or released accompanying the titration was recorded as differential power (DP) by the instrument software. Experiments were carried out with C values between 1 and 400. The total heat recorded was then fitted via a non-linear least-squares minimization method. Titration of the ligand solution with the buffer alone gave the heats of dilution. Titration with MBP alone was recorded under identical conditions.

MBP = MBP (Escherichia coli, UniProt P0AEX9); assay: isothermal titration calorimetry (ITC), MBP alone; assay type: binding; conditions: in solution
Description: as §1

ubiquitin = ubiquitin (Homo sapiens, UniProt P0CG47); assay: pull-down of unlabeled ubiquitin by Tentagel-displayed peptide, probed with Texas Red-labeled anti-ubiquitin antibody; assay type: binding; conditions: semi-quantitative
Description: To study the behavior of the ubiquitin-targeted chimeric binding element in capture assays, the peptide was synthesized on Tentagel and employed in “pull-down” assays. Beads displaying NH2-[…], a control peptide NH2-[…], or no peptide at all, were incubated with the indicated concentration of unlabeled ubiquitin in the presence of a 1000-fold excess of E. coli proteins (FIG. 26B). After thorough washing, the beads were then probed with Texas Red-labeled anti-ubiquitin-labeled polyclonal antibodies to visualize the bound protein. […] In all cases, the level of fluorescence from the chimeric binding element-displaying beads was much higher than from either set of control beads (see FIG. 26C for a direct comparison).

His6Gal80 [3] = biological target: T2, His6Gal80 (Saccharomyces cerevisiae, UniProt P04387); assay: lysate experiment: specificity of capture from E. coli lysate (silver stain); assay type: binding; conditions: Gal80 5% of total protein, silver staining
T2 construct: His6 (N); made in house; host or cells: E. coli
T2 sequence (P04387 1-435): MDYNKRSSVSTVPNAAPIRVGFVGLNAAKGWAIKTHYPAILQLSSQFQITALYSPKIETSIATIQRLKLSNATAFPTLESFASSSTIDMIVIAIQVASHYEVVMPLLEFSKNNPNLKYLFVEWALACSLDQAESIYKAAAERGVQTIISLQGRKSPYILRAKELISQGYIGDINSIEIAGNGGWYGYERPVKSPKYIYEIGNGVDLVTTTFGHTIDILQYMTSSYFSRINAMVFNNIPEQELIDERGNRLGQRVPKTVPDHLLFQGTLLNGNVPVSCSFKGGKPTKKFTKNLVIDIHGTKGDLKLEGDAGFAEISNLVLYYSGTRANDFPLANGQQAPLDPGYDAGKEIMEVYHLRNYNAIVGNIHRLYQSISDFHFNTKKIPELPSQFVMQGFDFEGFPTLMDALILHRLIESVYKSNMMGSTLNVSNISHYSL
Description: Lysate Experiment. E. coli lysate was prepared by growing BL21 cells to an OD600 of 0.8. Cells were lysed by sonication in PBS buffer. After sonication, triton X-100 was added to 1%. His6Gal80 was doped into the E. coli lysate (67 μg/mL) such that it constituted 5% of the total protein. Approximately 0.02 g of Tentagel beads on which the Gal80-binding peptide had been synthesized and deprotected were added to 300 μL of the E. coli lysate containing His6Gal80 and incubated for 2 hours at 4° C. The beads were washed four times for ten minutes each time at 4 with PBS buffer+1% triton X-100 at 150 mM NaCl at 4° C. and then twice with PBS buffer. GSTGal4 AD (activation domain) was pre-incubated with glutathione sepharose beads and then used as a positive control to pull-down His6Gal80 from the lysate under the same conditions. Gel loading dye was added directly to the beads, loaded onto a SDS polyacrylamide gel and analyzed by silver stain.
To address this point, the Gal80 bp/Gal80 pair was again employed. His6Gal80 was doped into an E. coli lysate such that Gal80 represented 5% of the total protein concentration. This solution was then incubated with the Tentagel-bound Gal80 bp followed by thorough washing to remove any unbound material. The composition of the proteins captured by the peptide was then addressed by SDS-PAGE followed by silver staining. […]

GST = biological target: T3, GST (Schistosoma japonicum, UniProt P08515); assay: isothermal titration calorimetry (ITC); assay type: binding; conditions: in solution; read-out: equilibrium dissociation constant, ITC
T3 construct: made in house; host or cells: E. coli BL21-RIL
Description: as §1

His6Gal80 [4] = biological target: T2, His6Gal80; assay: capturing dilute proteins with Tentagel-bound peptide; assay type: binding; conditions: peptide on Tentagel
Description: Capturing Dilute Proteins. Approximately 0.014 g of Tentagel beads displaying Gal80 binding peptide was blocked with 10% milk overnight at 4° C. The beads were divided equally into 7 tubes and incubated with 500 μL of buffer containing various amounts of His6Gal80 protein (5 to 400 ng) for 2 hours at 4° C. After washing four times with TBST buffer and twice with PBS, gel loading dye was added directly to the beads and the amount of bound His6Gal80 was determined as described above. A second gel containing known amounts of pure His6Gal80 was analyzed simultaneously and was used as a standard to quantitate the amount of His6Gal80 retained on the beads.
Efficient capture of dilute proteins. In all of the above examples, the protein was loaded onto the peptide-coated bead at a relatively high concentration (300 nM) prior to dilution. Since the concentration of most proteins of interest in a biological sample will be lower, it was of interest to evaluate the ability of a Tentagel-bound peptide to capture a dimeric protein from more dilute solutions. […] After washing, the bound protein was detected by boiling the beads in denaturing loading buffer followed by SDS-PAGE/western, blot analysis of the resulting supernatant. […] Further dilution of the protein in this assay format exceeded the sensitivity of the western blot. […]

T1 sequence (Q00987 whole entry, looked up, other chains not shown, the tested form may be a part): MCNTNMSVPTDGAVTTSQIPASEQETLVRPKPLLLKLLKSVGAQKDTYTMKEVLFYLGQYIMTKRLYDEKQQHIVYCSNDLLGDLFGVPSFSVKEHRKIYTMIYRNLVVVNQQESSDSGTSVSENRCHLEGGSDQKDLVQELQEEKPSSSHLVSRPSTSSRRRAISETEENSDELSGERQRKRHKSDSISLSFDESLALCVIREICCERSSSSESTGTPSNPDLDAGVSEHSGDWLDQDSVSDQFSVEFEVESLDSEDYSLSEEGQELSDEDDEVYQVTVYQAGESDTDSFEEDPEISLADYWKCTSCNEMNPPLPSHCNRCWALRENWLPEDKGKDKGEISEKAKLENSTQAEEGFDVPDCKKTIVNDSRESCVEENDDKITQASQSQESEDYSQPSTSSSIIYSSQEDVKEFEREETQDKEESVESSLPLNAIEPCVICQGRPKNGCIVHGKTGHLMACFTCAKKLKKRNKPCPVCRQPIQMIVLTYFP
T3 sequence (P08515 whole entry): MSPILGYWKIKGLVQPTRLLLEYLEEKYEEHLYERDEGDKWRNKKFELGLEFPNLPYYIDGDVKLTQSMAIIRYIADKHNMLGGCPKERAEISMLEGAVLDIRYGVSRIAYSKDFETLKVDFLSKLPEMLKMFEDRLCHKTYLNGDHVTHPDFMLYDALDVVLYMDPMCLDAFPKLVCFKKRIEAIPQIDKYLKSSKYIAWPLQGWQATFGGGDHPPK

## PREbp: Pre1 binding peptide isolated by phage display, free synthetic peptide before six polar amino acids were added (SHSTARGEQERAAVYLWFTYDHRSER)
Solubility observations
  solubility: insoluble

## NH2-Lys(Chalcone)-Nlys-Npip-Nlys-Nser-Nlys-Nlys-Nlys-Nlys-Npip-Npip [formula 2]
MBP-Mdm2 [1]; 100 nM protein, 1M NaCl, 1% Tween-20, 100-fold excess E. coli proteins
  solid phase MBP-Mdm2 affinity relative to components: higher affinity for Mdm2 than does either individual component of the chimera
MBP-Mdm2 [1]; 150 mM NaCl, 0.1% detergent, 100-fold excess E. coli proteins
  lowest protein concentration at which capture of Mdm2 was apparent: 10 nM
MBP-Mdm2 [2]; in solution, read-out: equilibrium dissociation constant (KD), ITC
  pKd: 5.89
MBP-Mdm2 [2]; solution, ITC
  improvement in affinity relative to parent compound formula 1: at least 170 fold
MBP
  pKd: < 2.22

## CC(C)C[C@H](NC(=O)CNC(=O)[C@@H](N)Cc1c[nH]c2ccccc12)C(=O)N[C@@H](CCCNC(=N)N)C(=O)N[C@@H](C)C(=O)N[C@@H](CC(C)C)C(=O)N[C@@H](CCC(=O)O)C(=O)N[C@@H](CO)C(=O)N[C@@H](CCCNC(=N)N)C(=O)N[C@@H](Cc1c[nH]c2ccccc12)C(=O)N[C@@H](CC(=O)O)C(=O)N[C@@H](CCCNC(=N)N)C(=O)N[C@@H](Cc1ccc(O)cc1)C(=O)N[C@@H](Cc1ccc(O)cc1)C(=O)N[C@@H](Cc1ccccc1)C(=O)O (H-WGLRALESRWDRYYF-OH; C-terminus assumed)
ubiquitin
  functional dissociation constant of immobilized chimeric binding element: at least in the low nanomolar range

## DLQRDTNKGFHEMFDWDYQN [Ga180bpscram]
His6Gal80 [3]
  proteins retained from Gal80-doped E. coli lysate: No detectable proteins were retained

## NCCCCN(CC(N)=O)C(=O)CN(Cc1ccc2c(c1)OCO2)C(=O)CN(CCc1ccc(S(N)(=O)=O)cc1)C(=O)CN(CCCCN)C(=O)CNCCc1ccc(S(N)(=O)=O)cc1 [Nbsa-Nlys-Nbsa-Npip-Nlys-CONH2] (H-[N(4-Sulfamoylphenethyl)Gly][Nlys][N(4-Sulfamoylphenethyl)Gly][Gly(N-piperonyl)][Nlys]-NH2)
GST
  pKd: 4.21

## Nmba-Nbsa-Nleu-Nlys-Npip-Nmba-Nleu-Nleu [random peptoid, reference compound]
MBP-Mdm2 [1]; 1000-fold excess E. coli proteins, Western blot
  native MBP-Mdm2 retained: No detectable MBP-Mdm2 protein was retained

## NCCCCNCC(=O)N(CC(=O)N(CCCCN)CC(=O)N(CCO)CC(=O)N(CCCCN)CC(=O)N(CCCCN)CC(=O)N(CCCCN)CC(=O)N(CCCCN)CC(=O)N(CC(=O)N(CC(N)=O)Cc1ccc2c(c1)OCO2)Cc1ccc2c(c1)OCO2)Cc1ccc2c(c1)OCO2 [NH2-Nlys-Npip-Nlys-Nser-Nlys-Nlys-Nlys-Nlys-Npip-Npip] (H-[Nlys][Gly(N-piperonyl)][Nlys][Gly(N-CH2CH2OH)][Nlys][Nlys][Nlys][Nlys][Gly(N-piperonyl)][Gly(N-piperonyl)]-NH2; N-terminus and C-terminus assumed)
MBP-Mdm2 [2]
  pKd: 3.42

## CSCC[C@H](NC(=O)[C@H](CC(=O)O)NC(=O)[C@H](CCC(N)=O)NC(=O)[C@H](CC(=O)O)NC(=O)[C@@H](N)Cc1ccc(O)cc1)C(=O)N[C@@H](CCC(N)=O)C(=O)N[C@@H](CC(N)=O)C(=O)N[C@@H](CC(N)=O)C(=O)N[C@H](C(=O)N[C@@H](Cc1ccccc1)C(=O)N[C@@H](CC(=O)O)C(=O)N[C@@H](CC(=O)O)C(=O)N[C@@H](CC(C)C)C(=O)N[C@@H](Cc1ccccc1)C(=O)N[C@@H](Cc1c[nH]c2ccccc12)C(=O)N[C@@H](CCCCN)C(=O)N[C@@H](CCC(=O)O)C(=O)NCC(=O)N[C@@H](Cc1c[nH]cn1)C(=O)N[C@@H](CCCNC(=N)N)C(=O)O)[C@@H](C)O [Ga180bp] (H-YDQDMQNNTFDDLFWKEGHR-OH; N-terminus and C-terminus assumed)
His6Gal80 [4]
  dissociation constant of immobilized peptide for Gal80 dimer: sub-nanomolar

## NCCCCNCC(=O)N(CCc1ccc(S(N)(=O)=O)cc1)CC(=O)N(CCCCN)CC(=O)N(CCO)CC(=O)N(CCc1ccc(S(N)(=O)=O)cc1)CC(=O)N(CC(=O)N(CCc1ccc(S(N)(=O)=O)cc1)CC(=O)N(CC(N)=O)Cc1ccc2c(c1)OCO2)Cc1ccc2c(c1)OCO2 [Nlys-Nbsa-Nlys-Nser-Nbsa-Npip-Nbsa-Npip] (H-[Nlys][N(4-Sulfamoylphenethyl)Gly][Nlys][Gly(N-CH2CH2OH)][N(4-Sulfamoylphenethyl)Gly][Gly(N-piperonyl)][N(4-Sulfamoylphenethyl)Gly][Gly(N-piperonyl)]-NH2)
MBP-Mdm2 [1]; native protein 1 μM, 1000-fold excess E. coli proteins, Western blot
  MBP-Mdm2 protein retained by immobilized peptoid: about 10%
MBP-Mdm2 [2]
  pKd: 4.43
MBP
  pKd: < 3.00
